From publication PMC8222254, “Self-assembly of an anion receptor with metal-dependent kinase inhibition and potent in vitro anti-cancer properties” (Nature Communications, 2021)

Experiments:
[1] = 31P NMR study of hydrolysis of phosphate esters and phosphorylated amino acids
Procedure: For ^1H NMR studies, reaction of [L2Zn3]^6+ with either Na2O3POPh and Bu4NH2PO4 was carried out in 10% D2O in CD3CN. The NMR solutions were prepared by dissolving the ligand L and Zn(C2H3O2)2 (in a ratio of 1:1.5) in CD3CN (600 µL). The relevant anion (0.5 equivalents w.r.t ligand) was dissolved in D2O (60 µL) and these solutions were then combined. Heating of the sample was carried out @ 80 °C in a water bath for the specified amount of time. For the ^31P NMR studies solutions were prepared by dissolving the ligand L and Zn(C2H3O2)2 (in a ratio of 1:1.5) in d6-DMSO (200 µL). The anion (0.5 equivalents w.r.t ligand) was dissolved in HEPES (600 µL, 60 mmol @ pH 7.4) and these solutions were then combined. Where required heating of the sample was carried out by incubating the sample @ 37 °C and/or a further 2 h @ 80 °C in a water bath.

HCT116 = assay: Metabolic flux analysis (Cell Energy Phenotype Assay, OCR/ECAR); assay type: cell-based, human; design: Mean Baseline EACR / Baseline EACR / Mean Stressed OCR / Stressed OCR / Mean Stressed EACR / Stressed EACR / Mean Baseline OCR / Baseline OCR: unit not given here; settings: for Baseline EACR / Baseline OCR / Stressed EACR / Stressed OCR / Mean Baseline EACR / Mean Baseline OCR / Mean Stressed EACR / Mean Stressed OCR: HCT116 cells
Procedure: (§1) ARPE-19 and HCT116 cells were seeded in 8-well XFp plates (Agilent) 48 h prior to metabolic flux analyses using the Agilent XFp extracellular flux analyser. Cell seeding densities were 2500 cells/well for ARPE-19 cells and 7500 cells/well for HCT116 cells in order to achieve equivalent cell confluency (~70% confluency and in log phase growth) at the time of analyses. Cells were treated with 25 μM of [L2Zn3]^6+ or solvent control (0.2% DMSO) for 1 h or 20 h before metabolic flux analyses using the Cell Energy Phenotype Assay (Agilent) in accordance with the manufacturer’s instructions. For determination of maximal respiratory and glycolytic rates (metabolic reserve) following real-time quantification of basal respiratory and glycolytic rates, a ‘metabolic stress mix’ of 1 µM oligomycin and FCCP (0.5 µM for ARPE-19, 0.25 µM for HCT116) was injected into the media.

ARPE-19 = assay: as above; assay type: cell-based, human; design: Baseline EACR / Mean Baseline EACR / Stressed OCR / Mean Stressed OCR / Stressed EACR / Mean Stressed EACR / Baseline OCR / Mean Baseline OCR: unit not given here; settings: for Baseline EACR / Baseline OCR / Stressed EACR / Stressed OCR / Mean Baseline EACR / Mean Baseline OCR / Mean Stressed EACR / Mean Stressed OCR: ARPE19 cells
Procedure: as §1

[2] = 1h exposure, mean of 3 runs (Fig. 9c)
[3] = 20h exposure, mean of 3 runs (Fig. 9d)

CC(=O)[O-].CC(=O)[O-].CC(=O)[O-].CC(=O)[O-].CC(=O)[O-].CC(=O)[O-].[Zn+2].[Zn+2].[Zn+2].c1ccc(-c2csc(NCCN(CCNc3nc(-c4ccccn4)cs3)CCNc3nc(-c4ccccn4)cs3)n2)nc1.c1ccc(-c2csc(NCCN(CCNc3nc(-c4ccccn4)cs3)CCNc3nc(-c4ccccn4)cs3)n2)nc1 [[L2Zn3]6+]
dephosphorylation of serine-OPO3 2- (31P NMR) ([1]; 37 °C): completion after 48 h | dephosphorylation of tyrosine-OPO3 2- (31P NMR) ([1]; 37 °C): completion after 48 h | dephosphorylation of threonine-OPO3 2- (31P NMR) ([1]; 37 °C, compared with serine and tyrosine phosphate): much slower | hydrolysis of phenyl phosphate dianion (31P NMR) ([1]; after 44 h at 37 °C, 25% DMSO / HEPES): virtually no signal | hydrolysis of 4-nitrophenyl phosphate (31P NMR) ([1]; following mixing): almost immediate hydrolysis | glycolysis (ECAR) (HCT116; HCT116, 25 μM, 1 h): modest selective decrease | mitochondrial respiration and glycolysis (HCT116; HCT116, 25 μM, 20 h): substantially impaired | Baseline EACR (HCT116; 1h exposure, Run 1 (Fig. 9c)): 36.12 | Baseline OCR (HCT116; 1h exposure, Run 1 (Fig. 9c)): 98.34 | Stressed EACR (HCT116; 1h exposure, Run 1 (Fig. 9c)): 50.32 | Stressed OCR (HCT116; 1h exposure, Run 1 (Fig. 9c)): 147.22 | Baseline EACR (HCT116; 1h exposure, Run 2 (Fig. 9c)): 27.29 | Baseline OCR (HCT116; 1h exposure, Run 2 (Fig. 9c)): 76.52 | Stressed EACR (HCT116; 1h exposure, Run 2 (Fig. 9c)): 37.11 | Stressed OCR (HCT116; 1h exposure, Run 2 (Fig. 9c)): 109.94 | Baseline EACR (HCT116; 1h exposure, Run 3 (Fig. 9c)): 34.53 | Baseline OCR (HCT116; 1h exposure, Run 3 (Fig. 9c)): 90.56 | Stressed EACR (HCT116; 1h exposure, Run 3 (Fig. 9c)): 47.29 | Stressed OCR (HCT116; 1h exposure, Run 3 (Fig. 9c)): 132.49 | Mean Baseline EACR (HCT116; [2]): 32.65 | Mean Baseline OCR (HCT116; [2]): 88.47 | Mean Stressed EACR (HCT116; [2]): 44.91 | Mean Stressed OCR (HCT116; [2]): 129.88 | Baseline EACR (HCT116; 20h exposure, Run 1 (Fig. 9d)): 24.12 | Baseline OCR (HCT116; 20h exposure, Run 1 (Fig. 9d)): 21.60 | Stressed EACR (HCT116; 20h exposure, Run 1 (Fig. 9d)): 29.60 | Stressed OCR (HCT116; 20h exposure, Run 1 (Fig. 9d)): 20.79 | Baseline EACR (HCT116; 20h exposure, Run 2 (Fig. 9d)): 26.59 | Baseline OCR (HCT116; 20h exposure, Run 2 (Fig. 9d)): 20.38 | Stressed EACR (HCT116; 20h exposure, Run 2 (Fig. 9d)): 33.07 | Stressed OCR (HCT116; 20h exposure, Run 2 (Fig. 9d)): 21.88 | Baseline EACR (HCT116; 20h exposure, Run 3 (Fig. 9d)): 25.54 | Baseline OCR (HCT116; 20h exposure, Run 3 (Fig. 9d)): 19.42 | Stressed EACR (HCT116; 20h exposure, Run 3 (Fig. 9d)): 31.03 | Stressed OCR (HCT116; 20h exposure, Run 3 (Fig. 9d)): 19.19 | Mean Baseline EACR (HCT116; [3]): 25.41 | Mean Baseline OCR (HCT116; [3]): 20.47 | Mean Stressed EACR (HCT116; [3]): 31.23 | Mean Stressed OCR (HCT116; [3]): 20.62 | Baseline EACR (ARPE-19; 1h exposure, Run 1 (Fig. 9c)): 18.76 | Baseline OCR (ARPE-19; 1h exposure, Run 1 (Fig. 9c)): 23.36 | Stressed EACR (ARPE-19; 1h exposure, Run 1 (Fig. 9c)): 24.63 | Stressed OCR (ARPE-19; 1h exposure, Run 1 (Fig. 9c)): 30.28 | Baseline EACR (ARPE-19; 1h exposure, Run 2 (Fig. 9c)): 18.49 | Baseline OCR (ARPE-19; 1h exposure, Run 2 (Fig. 9c)): 21.88 | Stressed EACR (ARPE-19; 1h exposure, Run 2 (Fig. 9c)): 25.17 | Stressed OCR (ARPE-19; 1h exposure, Run 2 (Fig. 9c)): 27.97 | Baseline EACR (ARPE-19; 1h exposure, Run 3 (Fig. 9c)): 18.70 | Baseline OCR (ARPE-19; 1h exposure, Run 3 (Fig. 9c)): 20.12 | Stressed EACR (ARPE-19; 1h exposure, Run 3 (Fig. 9c)): 24.11 | Stressed OCR (ARPE-19; 1h exposure, Run 3 (Fig. 9c)): 25.60 | Mean Baseline EACR (ARPE-19; [2]): 18.65 | Mean Baseline OCR (ARPE-19; [2]): 21.79 | Mean Stressed EACR (ARPE-19; [2]): 24.64 | Mean Stressed OCR (ARPE-19; [2]): 27.95 | Baseline EACR (ARPE-19; 20h exposure, Run 1 (Fig. 9d)): 13.57 | Baseline OCR (ARPE-19; 20h exposure, Run 1 (Fig. 9d)): 9.08 | Stressed EACR (ARPE-19; 20h exposure, Run 1 (Fig. 9d)): 15.01 | Stressed OCR (ARPE-19; 20h exposure, Run 1 (Fig. 9d)): 12.02 | Baseline EACR (ARPE-19; 20h exposure, Run 2 (Fig. 9d)): 10.60 | Baseline OCR (ARPE-19; 20h exposure, Run 2 (Fig. 9d)): 7.37 | Stressed EACR (ARPE-19; 20h exposure, Run 2 (Fig. 9d)): 11.55 | Stressed OCR (ARPE-19; 20h exposure, Run 2 (Fig. 9d)): 9.95 | Baseline EACR (ARPE-19; 20h exposure, Run 3 (Fig. 9d)): 12.23 | Baseline OCR (ARPE-19; 20h exposure, Run 3 (Fig. 9d)): 7.73 | Stressed EACR (ARPE-19; 20h exposure, Run 3 (Fig. 9d)): 13.58 | Stressed OCR (ARPE-19; 20h exposure, Run 3 (Fig. 9d)): 9.28 | Mean Baseline EACR (ARPE-19; [3]): 12.13 | Mean Baseline OCR (ARPE-19; [3]): 8.06 | Mean Stressed EACR (ARPE-19; [3]): 13.38 | Mean Stressed OCR (ARPE-19; [3]): 10.41 | glycolysis (ECAR) (ARPE-19; ARPE-19, 25 μM, 1 h): unaffected
